Test system: human breast cancer ZR-75-1 cell xenograft tumor
Experiment: Anti-tumor effect in ER+KAT6high breast cancer cell xenograft tumor model (Test Example 6)
Format: in vivo, Balb/c nude mice
Conditions: for T/C / TGI / mean tumor volume: day 34; for efficacy compared to PF-8144: 0.1 mg/kg and 0.3 mg/kg PO QD; for body weight changes compared to the PF-8144 group: all doses (0.1, 0.3 mg/kg)
Procedure: Test Example 6: Anti-Tumor Effects of Test Compounds in ER^+KAT6^high Breast Cancer Cell-Xenograft Tumor Model
Assay method: ZR-75-1 cells were subcutaneously inoculated into the right back of each mouse to evaluate the efficacy of the compounds in the subcutaneous xenograft tumor model of ZR-75-1 cells.
• 1. Cell culture: ZR-75-1 cells were cultured as a monolayer in vitro under the following culture conditions: an RPMI 1640 medium supplemented with 10% fetal bovine serum and 1% Anti-anti (Antibiotic-Antimycotic), incubated in an incubator at 37° C. with 5% CO2. The cells were digested with trypsin-EDTA twice a week for passaging as per conventional practice. When the cell saturation reached 80%-90% and the quantity met the requirement, the cells were harvested, counted, and inoculated. • 2. Animals: Balb/c nude mice, female, 6-8 weeks old, weighing 18-22 g. A total of 115 mice were required (72 mice were enrolled). They were provided by Vital River or other qualified suppliers. • 3. Tumor inoculation: Two days before tumor inoculation, 17-beta estradiol tablets (0.18 mg) were subcutaneously administered, and 10 million ZR-75-1 tumor cells+matrigel (total […]) were subcutaneously inoculated into the right back of each mouse. When the mean tumor volume reached about 131 mm^3, the mice were grouped for administration. • 4. Experimental administration: The compounds were dissolved in 5% DMSO+5% Tween 80+90% Saline or 10% DMSO+10% Solutol+80% (10% HPP-CD in saline), and administered intragastrically (PO) daily for five weeks. • 5. Experimental indicators: The experimental indicators were to investigate whether the tumor growth was inhibited or delayed or the tumor was cured. Tumor diameters were measured twice weekly using a vernier caliper. The tumor volume was calculated using the following formula: V=0.5a×b^2, where a and b represent the long diameter and short diameter of the tumor, respectively. • 6. The anti-tumor efficacy of the compounds was evaluated by TGI (%) or relative tumor proliferation rate T/C (%). TGI (%) refers to the tumor growth inhibition rate. Calculation of TGI (%):TGI (%)=[(1−(mean tumor volume at the end of administration in a treatment group—mean tumor volume at the start of administration in the treatment group))/(mean tumor volume at the end of treatment in the solvent control group—mean tumor volume at the start of treatment in the solvent control group)]×100%. The calculation formula for the relative tumor proliferation rate T/C (%) was as follows: T/C %=TRTV/CRTV×100% (TRTV:RTV of the treatment group; CRTV:RTV of the negative control group). The relative tumor volume (RTV) was calculated based on the tumor measurement results using the following formula: RTV=Vt/V0, where V0 represents the mean tumor volume measured at the time of grouping for administration (i.e., PG-DO), and Vt represents the mean tumor volume at a certain measurement. TRTV and CRTV were derived from data measured on the same day.
The mean and standard error of mean (SEM) of tumor volume at each time point for each group were included. The differences in tumor volume and tumor weight among the groups were statistically analyzed. For comparisons among three or more groups, one-way ANOVA was used for analysis. […] The analysis was performed using SPSS 17.0, and p<0.05 was considered to indicate a significant difference.
For comparisons between different doses of the same drug or different drugs at the same dose, two-way ANOVA was used for analysis, and the Bonferroni method was applied for testing. The analysis was performed using GraphPad Prism 9.0, and p<0.05 was considered to indicate a significant difference. On day 34 after the start of administration, the data between different doses of the same drug or different drugs at the same dose were analyzed using one-way ANOVA. […] The analysis was performed using SPSS 17.0, and p<0.05 was considered to indicate a significant difference.

Question: How did the T/C (0.1 mg/kg PO QD) turn out when `COc1ccc2c(c1S(=O)(=O)Nc1noc3cc(Cn4cccn4)c(F)c(OC)c13)OCCC2=O` [Compound 42, N-(6-((1H-Pyrazol-1-yl)methyl)-5-fluoro-4-methoxybenzo[d]isoxazol-3-yl)-7-methoxy-4-oxochromane-8-sulfonamide] was run?
Answer: Its T/C is 3.9%.

Question: What about the TGI (0.1 mg/kg PO QD) of the same compound?
Answer: Its TGI is 108.67%.

Question: What about the mean tumor volume (0.1 mg/kg PO QD) of the same compound?
Answer: Its mean tumor volume is 44 mm^3.

Question: And the “efficacy compared to PF-8144” value?
Answer: The value was “significantly superior in efficacy to PF-8144”.

Question: What about the T/C (0.3 mg/kg PO QD) of the same compound?
Answer: The T/C was 2.2%.

Question: What about the TGI (0.3 mg/kg PO QD) of the same compound?
Answer: The TGI was 110.58%.

Question: And the mean tumor volume (0.3 mg/kg PO QD)?
Answer: Its mean tumor volume is 25 mm^3.

Question: And the “body weight changes compared to the PF-8144 group” value?
Answer: The value was “no statistically significant difference”.

Question: How did the T/C (0.1 mg/kg PO QD) turn out when `COc1ccc2c(c1S(=O)(=O)Nc1noc3cc(Cn4cccn4)c(F)c(OC)c13)OCCCO2` [Compound 114, N-(6-((1H-Pyrazol-1-yl)methyl)-5-fluoro-4-methoxybenzo[d]isoxazol-3-yl)-7-methoxy-3,4-dihydro-2H-benzo[b][1,4]dioxepine-6-sulfonamide] was run?
Answer: The T/C was 35.8%.

Question: What about the TGI (0.1 mg/kg PO QD) of the same compound?
Answer: Its TGI is 72.61%.

Question: What about the mean tumor volume (0.1 mg/kg PO QD) of the same compound?
Answer: The mean tumor volume was 403 mm^3.

Question: And the T/C (0.3 mg/kg PO QD)?
Answer: Its T/C is 10.5%.

Question: And the TGI (0.3 mg/kg PO QD)?
Answer: The TGI was 101.21%.

Question: What about the mean tumor volume (0.3 mg/kg PO QD) of the same compound?
Answer: Its mean tumor volume is 119 mm^3.

Question: And the “body weight changes compared to the PF-8144 group” value?
Answer: Its value is “no statistically significant difference”.

Question: Which results are given for `COc1ccc2c(c1S(=O)(=O)Nc1noc3cc(Cn4cccn4)c(F)c(OC)c13)OCCCN2C` [Compound 115, N-(6-((1H-Pyrazol-1-yl)methyl)-5-fluoro-4-methoxybenzo[d]isoxazol-3-yl)-8-methoxy-5-methyl-2,3,4,5-tetrahydrobenzo[b][1,4]oxazepine-9-sulfonamide]?
Answer: T/C (0.1 mg/kg PO QD): 8.6%; TGI (0.1 mg/kg PO QD): 103.38%; mean tumor volume (0.1 mg/kg PO QD): 97 mm^3; efficacy compared to PF-8144: significantly superior in efficacy to PF-8144; T/C (0.3 mg/kg PO QD): 2.4%; TGI (0.3 mg/kg PO QD): 110.47%; mean tumor volume (0.3 mg/kg PO QD): 27 mm^3; body weight changes compared to the PF-8144 group: no statistically significant difference

Question: Which results are given for `COc1ccccc1S(=O)(=O)Nc1noc2cc(Cn3cccn3)cc(OC)c12` [PF-8144, reference compound]?
Answer: T/C (0.1 mg/kg PO QD): 36.2%; TGI (0.1 mg/kg PO QD): 72.2%; mean tumor volume (0.1 mg/kg PO QD): 407 mm^3; T/C (0.3 mg/kg PO QD): 19.5%; TGI (0.3 mg/kg PO QD): 91.07%; mean tumor volume (0.3 mg/kg PO QD): 220 mm^3
